Assay results as given in PMC6627197, “Development of a High Throughput Screen for the Identification of Inhibitors of Peptidoglycan O-Acetyltransferases, New Potential Antibacterial Targets” (Antibiotics, 2019).
Values after ≈ are worked out from the molar mass of the structure shown. “Also recorded” adds a separate entry of the source. Like-named read-outs stand apart in the source and are kept apart here.

What was measured:
[1] = target: T1, NgPatB (Neisseria gonorrhoeae, UniProt Q5F966); test: NgPatB esterase inhibition, fluorometric assay with 4MU-Ac as substrate (HTS, dose response, Ki); format: biochemical; conditions: for activity at 10 µM: pH 7, read-out: NgPatB 4MU-Ac 1° Screen (% RA); for Mode of inhibition of NgPatB: 4MU-Ac as substrate, double reciprocal plot
T1 sequence (Q5F966 entry or part of it): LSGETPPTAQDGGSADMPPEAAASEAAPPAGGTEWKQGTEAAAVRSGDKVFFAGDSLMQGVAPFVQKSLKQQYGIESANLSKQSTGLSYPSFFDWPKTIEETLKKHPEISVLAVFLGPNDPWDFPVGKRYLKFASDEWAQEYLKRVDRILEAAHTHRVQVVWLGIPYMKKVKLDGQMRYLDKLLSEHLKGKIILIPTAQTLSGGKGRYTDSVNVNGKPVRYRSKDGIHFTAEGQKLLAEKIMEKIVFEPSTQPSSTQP
Protocol: Determinations of Ki and mode of inhibition of NgPatBΔ100 were conducted using 4MU-Ac as a substrate. […] Initial velocities of substrate hydrolysis were obtained by fluorescence emission at 420 nm (390 nm excitation).
A large scale HTS was conducted at the SPARC BioCentre Drug Discovery Facility (The Hospital for Sick Children, Toronto, Canada) to identify additional inhibitors of PatBΔ100 acetylesterase activity. A total of 68,928 compounds were tested in singlicate, including 14,400 from the Maybridge HitFinder Collection, 50,000 from the ChemBridge DIVERset Collection, and 4,480 compounds representing plates 1–15 of the GlycoNET ChemBridge Collection maintained at the facility. The 4MU-Ac served as the substrate in the 384-well microtiter plate (NUNC 262260) fluorescent assay described above. The assay was optimized for use with this facility by altering enzyme and substrate concentrations, in addition to incubation times and reaction volume. As for the pilot screen, a Z’ for the assay was determined using Equation (1). […] This was followed by dispensing final concentrations of 20 µM compounds from the Maybridge HitFinder and ChemBridge DIVERset Collections or 10 µM compounds from the GlycoNET ChemBridge Collection using an Echo® 550 acoustic dispenser (Labcyte).

[2] = target: T2, SaOatA (Staphylococcus aureus, UniProt Q2FV54); test: biochemical; conditions: for activity at 10 µM: pH 7, read-out: SaOatA 4MU-Ac 1° Screen (% RA)
T2 sequence (Q2FV54 435-603): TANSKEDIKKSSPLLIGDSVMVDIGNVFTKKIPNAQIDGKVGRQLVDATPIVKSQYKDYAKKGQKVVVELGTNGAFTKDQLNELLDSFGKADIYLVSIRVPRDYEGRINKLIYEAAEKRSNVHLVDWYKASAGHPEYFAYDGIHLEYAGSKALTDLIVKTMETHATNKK

[3] = test system: E. coli BL21; test: Microtiter plate growth / MIC assay, E. coli (negative control organism); conditions: for Effect on growth of E. coli: within solubility limits
[4] = Solubility limit in growth assays
[5] = test system: N. gonorrhoeae FA1090; test: Microtiter plate growth / MIC assay, N. gonorrhoeae
[6] = target: T2, SaOatA; conditions: cited from earlier work
[7] = target: T2, SaOatA; test: SaOatA esterase inhibition, chromogenic assay with pNP-Ac as substrate; format: biochemical
Protocol: (§1) With fluorometric assays, fluorescence quenching by compounds in the libraries could lead to their false identification as inhibitors. Thus, to confirm their inhibitory activity, we also tested esculin, esculetin, and scopoletin as inhibitors of PatBΔ69 and SaOatAΔ435 esterase activity using the chromogenic pNP-Ac as substrate. […] .
(§2) Hits which were seen to affect NgPatBΔ100 esterase activity in a dose dependent manner were also tested as inhibitors of the enzyme (0.75 µM, final concentration) using 2 mM pNP-Ac as substrate to identify false positives, due to fluorescence quenching under similar assay conditions. Similarly, hits which were seen to affect SaOatAΔ445 esterase activity in a dose dependent manner were also tested as inhibitors of the enzyme at 1.5 µM (final concentration) using 1.1 mM pNP-Ac.

[8] = test system: S. aureus ATCC 6538; test: Microtiter plate growth / MIC assay, S. aureus; conditions: Staphylococcus aureus, ATCC6538, read-out: Growth of S. aureus ATCC 6538, % of control growth level reached
[9] = target: T1, NgPatB; test: NgPatB esterase inhibition, chromogenic assay with pNP-Ac as substrate; format: biochemical
Protocol: as §1, §2

[10] = target: T1, NgPatB; format: biochemical; conditions: 3 µM enzyme, pH 7.0
[11] = target: SaOatA (Staphylococcus aureus, UniProt Q2FV54); format: biochemical; conditions: variant SaOatA445 (SaOatAΔ445), 5 µM enzyme, pH 6.5
[12] = target: T2, SaOatA; conditions: 10 µM
[13] = listed as benzothiazolyl-pyrazolo-pyridine
[14] = read-out: SaOatA 4MU-Ac IC50, 4MU-Ac as substrate, values marked 2 in Table 1

| SMILES | activity at 10 µM [1] [%] | activity at 10 µM [2] [%] | IC50 [1] [µM] | IC50 [6, 14] [µM] | IC50 [7] [µM] | IC50 [9] [µM] | further results |
| --- | --- | --- | --- | --- | --- | --- | --- |
| Cc1cc(=O)oc2cc(O)c(O)cc12 [4-Me-esculetin] | 92 | 98.3 |  |  |  |  |  |
| CCCCn1c(C)c2c(=O)n(-c3nc4ccccc4s3)[nH]c2cc1=O [Compound 89224] | 78.8 | 99.8 | 22.1 ± 1.2 |  |  |  | Ki [1]: 126 ± 19 µM; Mode of inhibition of NgPatB [1]: mixed/non-competitive inhibitor; Mode of inhibition of NgPatB [1, 13]: non-competitive inhibitor; Effect on growth of E. coli [3]: did not affect the growth; also recorded: not affected; Effect on growth of E. coli [3, 13]: unaffected; solubility [4]: ~0.177 mg/mL (≈ 499 µM); Reduction in growth of N. gonorrhoeae ([5]; 177 µg/mL, OD 600 nm vs control lacking compound): 90% |
| O=c1ccc2ccccc2o1 [Coumarin, 1,2-benzopyrone] | 82.5 | 106 |  |  |  |  |  |
| O=c1ccc2cc(O)c(O)cc2o1 [Esculetin] | 55.7 | 71 | 53.1 ± 1 | 106 ± 1.2 | 600 ± 140 | 853 ± 79 | Ki [1]: 86.7 ± 4.7 µM; Mode of inhibition of NgPatB [1]: competitive inhibitor; MIC ([3]; Escherichia coli, BL21, read-out: MIC, E. coli BL21): 512 mg/L (≈ 2870 µM); activity at 512 µg/mL [8]: 10%; activity at 512 µg/mL ([5]; Neisseria gonorrhoeae, FA1090, read-out: Growth of N. gonorrhoeae FA1090, % of control growth level reached): 25% |
| O=c1ccc2cc(O[C@@H]3O[C@H](CO)[C@@H](O)[C@H](O)[C@H]3O)c(O)cc2o1 [Esculin] |  |  | 49.7 ± 3 | 75.8 ± 1 | 1350 ± 150 | 923 ± 9 | remaining activity at 10 µM ([1]; read-out: NgPatB 4MU-Ac 1° Screen (% RA)): 38.4%; remaining activity at 10 µM ([2]; read-out: SaOatA 4MU-Ac 1° Screen (% RA)): 47.8%; solubility [4]: 2.05 mg/mL (≈ 6020 µM) |
| Cc1cc(=O)oc2cc(O)ccc12 [Hymercrome, 7-hydroxy-4-methyl-coumarin, reference compound] | 42.9 | 67.8 | 615 ± 10 |  | > 3000 | > 3000 | IC50 [2]: > 3000 µM |
| COc1cc2oc(=O)ccc2cc1O [Isoscopoletin] | 53.5 | 115 |  |  |  |  |  |
| COc1cc2ccc(=O)oc2cc1O [Scopoletin] | 30 | 21.4 | 47.9 ± 4 | 103 ± 1.1 | 1170 ± 100 | 792 ± 7 | solubility [4]: 0.48 mg/mL (≈ 2500 µM) |
| O=c1ccc2ccc(O)cc2o1 [Umbelliferone, 7-hydroxycoumarin] |  |  | 530 ± 70 | 98.5 ± 1.1 | > 3000 | > 3000 |  |
| CC(=O)Oc1ccc([N+](=O)[O-])cc1 [pNP-Ac, p-nitrophenyl acetate] |  |  |  |  |  |  | Km ([10]; variant NgPatB69 (NgPatBΔ69)): 1770 µM; kcat ([10]; variant NgPatB69 (NgPatBΔ69)): 0.14 sec‐1; Km ([10]; variant NgPatB100 (NgPatBΔ100)): 2060 µM; kcat ([10]; variant NgPatB100 (NgPatBΔ100)): 0.44 sec‐1; Km [11]: 1140 µM; kcat [11]: 0.047 sec‐1 |
| O=C1c2ccccc2C(=O)c2c(O)c(O)cc(O)c21 [purpurin, 1,2,4-trihydroxy-anthraquinone, reference compound] |  |  |  |  |  |  | Identified in pilot HTS as inhibitor of NgPatB ([1]; pilot HTS, 10 µM): not identified; Identified in pilot HTS as inhibitor of SaOatA [12]: not identified; IC50 ([6]; read-out: IC50 for SaOatA, earlier preliminary characterization): ~1100 µM |
